Read-outs that look alike come from different tables or passages of the source. Starred links: 1 amine or outer side, 2 acyl side, 3 side chain; linkers in the order of their positions; H or OH if unused. Non-standard residues stand in square brackets, D forms with d. Residues, ends and D or L forms follow the SMILES beside them. X7 = NC(=O)CC[C@@H](CN[*:1])C(=O)[*:2]
Assays:
[1] = target: T1, PTHR1 (Homo sapiens, UniProt Q03431); experiment: PTHR1 activation, cAMP production (GloSensor) in HEK293 cells; assay type: cell-based; parameters: expressed in transfected cells; settings: for PTHR1 Activation: Derivative EC50/PTH EC50: normalized to EC50 of PTH(1-34)-NH2 ([…]), cAMP production
T1 sequence (Q03431 27-593): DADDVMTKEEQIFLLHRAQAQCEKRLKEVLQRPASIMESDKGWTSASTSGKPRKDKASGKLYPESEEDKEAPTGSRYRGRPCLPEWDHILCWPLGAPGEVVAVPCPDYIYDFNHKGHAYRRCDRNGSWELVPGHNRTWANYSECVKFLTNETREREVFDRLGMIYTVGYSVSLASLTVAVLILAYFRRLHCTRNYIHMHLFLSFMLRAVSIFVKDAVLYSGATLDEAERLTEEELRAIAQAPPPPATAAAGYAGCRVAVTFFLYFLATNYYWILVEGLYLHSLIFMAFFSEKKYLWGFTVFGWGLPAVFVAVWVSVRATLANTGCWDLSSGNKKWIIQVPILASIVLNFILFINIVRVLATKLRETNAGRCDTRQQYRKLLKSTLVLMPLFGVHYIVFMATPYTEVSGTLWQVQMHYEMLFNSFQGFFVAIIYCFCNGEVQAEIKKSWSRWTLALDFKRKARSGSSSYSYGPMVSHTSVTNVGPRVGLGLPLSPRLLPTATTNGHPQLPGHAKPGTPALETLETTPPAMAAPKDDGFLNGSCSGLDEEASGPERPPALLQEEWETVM
Excerpt: The assays employ HEK-293 cells that have been engineered to express the appropriate receptor. GloSensor-based detection of cAMP provides a read-out of receptor activation.
For PTHR1 activation and all the binding data, data represent mean±s.e.m from three independent measurements; For PTHR2 activation, data represent mean±s.e.m from four independent measurements. Curves were fit to the data using a four-parameter sigmoidal dose-response equation.
For cAMP dose-response assays, monolayers of confluent HEK 293 cells were pre-incubated with buffer containing d-luciferin (0.5 mM) in 96 well plates at room temperature until a stable baseline level of luminescence was established (30 min). Varying concentrations of agonist were then added, and the time course of luminescence response was recorded using a Perkin Elmer plate reader following α/β-peptide addition.

[2] = test system: PTHR1 and PTHR2; experiment: Tolerance pattern of β residues for PTHR1 and PTHR2 activation; assay type: cell-based; parameters: key: “*” denotes potent PTHR1-selective agonism; “#” denotes potent PTHR2-selective agonism; “*#” denotes potent agonism of both PTHR1 and PTHR2; settings: PTHR1 vs PTHR2 agonism
Excerpt: Enhanced selectivity via double α→β replacement.

[3] = HEK-293 cells, GloSensor cAMP, read-out: EC50 (nM) of PTHR1 Activation
[4] = Table 8, hPTHR1, read-out: PTHR1 EC50

SMILES	EC50 [1, 3] [nM]	PTHR1 Activation: Derivative EC50/PTH EC50 [1]	EC50 [1, 4] [nM]	Tolerance Pattern of β AA [2]
CC[C@H](C)[C@H](NC(=O)[C@H](CCC(=O)O)NC(=O)C[C@H](CO)NC(=O)[C@@H](NC(=O)[C@@H](N)CO)C(C)C)C(=O)N[C@@H](CCC(N)=O)C(=O)N[C@@H](CC(C)C)C(=O)N[C@@H](CCSC)C(=O)N[C@@H](Cc1c[nH]cn1)C(=O)N[C@@H](CC(N)=O)C(=O)N[C@@H](CC(C)C)C(=O)NCC(=O)N[C@@H](CCCCN)C(=O)N[C@@H](Cc1c[nH]cn1)C(=O)N[C@@H](CC(C)C)C(=O)N[C@@H](CC(N)=O)C(=O)N[C@@H](CO)C(=O)N[C@@H](CCSC)C(=O)N[C@@H](CCC(=O)O)C(=O)N[C@@H](CCCNC(=N)N)C(=O)N[C@H](C(=O)N[C@@H](CCC(=O)O)C(=O)N[C@@H](Cc1c[nH]c2ccccc12)C(=O)N[C@@H](CC(C)C)C(=O)N[C@@H](CCCNC(=N)N)C(=O)N[C@@H](CCCCN)C(=O)N[C@@H](CCCCN)C(=O)N[C@@H](CC(C)C)C(=O)N[C@@H](CCC(N)=O)C(=O)N[C@@H](CC(=O)O)C(=O)N[C@H](C(=O)N[C@@H](Cc1c[nH]cn1)C(=O)N[C@@H](CC(N)=O)C(=O)N[C@@H](Cc1ccccc1)C(N)=O)C(C)C)C(C)C [SEQ. ID. NO: 40]	–	–	–	#
CC[C@H](C)[C@H](NC(=O)[C@H](CCC(=O)O)NC(=O)[C@H](CO)NC(=O)[C@@H](NC(=O)C[C@@H](N)CO)C(C)C)C(=O)N[C@@H](CCC(N)=O)C(=O)N[C@@H](CC(C)C)C(=O)N[C@@H](CCSC)C(=O)N[C@@H](Cc1c[nH]cn1)C(=O)N[C@@H](CC(N)=O)C(=O)N[C@@H](CC(C)C)C(=O)NCC(=O)N[C@@H](CCCCN)C(=O)N[C@@H](Cc1c[nH]cn1)C(=O)N[C@@H](CC(C)C)C(=O)N[C@@H](CC(N)=O)C(=O)N[C@@H](CO)C(=O)N[C@@H](CCSC)C(=O)N[C@@H](CCC(=O)O)C(=O)N[C@@H](CCCNC(=N)N)C(=O)N[C@H](C(=O)N[C@@H](CCC(=O)O)C(=O)N[C@@H](Cc1c[nH]c2ccccc12)C(=O)N[C@@H](CC(C)C)C(=O)N[C@@H](CCCNC(=N)N)C(=O)N[C@@H](CCCCN)C(=O)N[C@@H](CCCCN)C(=O)N[C@@H](CC(C)C)C(=O)N[C@@H](CCC(N)=O)C(=O)N[C@@H](CC(=O)O)C(=O)N[C@H](C(=O)N[C@@H](Cc1c[nH]cn1)C(=O)N[C@@H](CC(N)=O)C(=O)N[C@@H](Cc1ccccc1)C(N)=O)C(C)C)C(C)C [SEQ. ID. NO: 38]	0.27 ± 0.06	–	–	*#
CC[C@H](C)[C@H](NC(=O)[C@H](CCC(=O)O)NC(=O)[C@H](CO)NC(=O)[C@@H](NC(=O)[C@@H](N)CO)C(C)C)C(=O)N[C@@H](CCC(N)=O)CC(=O)N[C@@H](CC(C)C)C(=O)N[C@@H](CCSC)C(=O)N[C@@H](Cc1c[nH]cn1)C(=O)N[C@@H](CC(N)=O)C(=O)N[C@@H](CC(C)C)C(=O)NCC(=O)N[C@@H](CCCCN)C(=O)N[C@@H](Cc1c[nH]cn1)C(=O)N[C@@H](CC(C)C)C(=O)N[C@@H](CC(N)=O)C(=O)N[C@@H](CO)C(=O)N[C@@H](CCSC)C(=O)N[C@@H](CCC(=O)O)C(=O)N[C@@H](CCCNC(=N)N)C(=O)N[C@H](C(=O)N[C@@H](CCC(=O)O)C(=O)N[C@@H](Cc1c[nH]c2ccccc12)C(=O)N[C@@H](CC(C)C)C(=O)N[C@@H](CCCNC(=N)N)C(=O)N[C@@H](CCCCN)C(=O)N[C@@H](CCCCN)C(=O)N[C@@H](CC(C)C)C(=O)N[C@@H](CCC(N)=O)C(=O)N[C@@H](CC(=O)O)C(=O)N[C@H](C(=O)N[C@@H](Cc1c[nH]cn1)C(=O)N[C@@H](CC(N)=O)C(=O)N[C@@H](Cc1ccccc1)C(N)=O)C(C)C)C(C)C [SEQ. ID. NO: 43]	8.45 ± 1.35	22.24	–	#
CC[C@H](C)[C@H](NC(=O)[C@H](CCC(=O)O)NC(=O)[C@H](CO)NC(=O)C[C@@H](NC(=O)[C@@H](N)CO)C(C)C)C(=O)N[C@@H](CCC(N)=O)C(=O)N[C@@H](CC(C)C)C(=O)N[C@@H](CCSC)C(=O)N[C@@H](Cc1c[nH]cn1)C(=O)N[C@@H](CC(N)=O)C(=O)N[C@@H](CC(C)C)C(=O)NCC(=O)N[C@@H](CCCCN)C(=O)N[C@@H](Cc1c[nH]cn1)C(=O)N[C@@H](CC(C)C)C(=O)N[C@@H](CC(N)=O)C(=O)N[C@@H](CO)C(=O)N[C@@H](CCSC)C(=O)N[C@@H](CCC(=O)O)C(=O)N[C@@H](CCCNC(=N)N)C(=O)N[C@H](C(=O)N[C@@H](CCC(=O)O)C(=O)N[C@@H](Cc1c[nH]c2ccccc12)C(=O)N[C@@H](CC(C)C)C(=O)N[C@@H](CCCNC(=N)N)C(=O)N[C@@H](CCCCN)C(=O)N[C@@H](CCCCN)C(=O)N[C@@H](CC(C)C)C(=O)N[C@@H](CCC(N)=O)C(=O)N[C@@H](CC(=O)O)C(=O)N[C@H](C(=O)N[C@@H](Cc1c[nH]cn1)C(=O)N[C@@H](CC(N)=O)C(=O)N[C@@H](Cc1ccccc1)C(N)=O)C(C)C)C(C)C [SEQ. ID. NO: 39]	–	–	–	*#

More lines, main results first:

EC50 [1, 3] [nM]	PTHR1 Activation: Derivative EC50/PTH EC50 [1]	EC50 [1, 4] [nM]	SMILES	Tolerance Pattern of β AA [2]
4.47 ± 0.47	11.76	–	CC[C@H](C)[C@H](NC(=O)[C@H](CCC(=O)O)NC(=O)[C@H](CO)NC(=O)[C@@H](CNC(=O)[C@@H](N)CO)C(C)C)C(=O)N[C@@H](CCC(N)=O)C(=O)N[C@@H](CC(C)C)C(=O)N[C@@H](CCSC)C(=O)N[C@@H](Cc1c[nH]cn1)C(=O)N[C@@H](CC(N)=O)C(=O)N[C@@H](CC(C)C)C(=O)NCC(=O)N[C@@H](CCCCN)C(=O)N[C@@H](Cc1c[nH]cn1)C(=O)N[C@@H](CC(C)C)C(=O)N[C@@H](CC(N)=O)C(=O)N[C@@H](CO)C(=O)N[C@@H](CCSC)C(=O)N[C@@H](CCC(=O)O)C(=O)N[C@@H](CCCNC(=N)N)C(=O)N[C@H](C(=O)N[C@@H](CCC(=O)O)C(=O)N[C@@H](Cc1c[nH]c2ccccc12)C(=O)N[C@@H](CC(C)C)C(=O)N[C@@H](CCCNC(=N)N)C(=O)N[C@@H](CCCCN)C(=O)N[C@@H](CCCCN)C(=O)N[C@@H](CC(C)C)C(=O)N[C@@H](CCC(N)=O)C(=O)N[C@@H](CC(=O)O)C(=O)N[C@H](C(=O)N[C@@H](Cc1c[nH]cn1)C(=O)N[C@@H](CC(N)=O)C(=O)N[C@@H](Cc1ccccc1)C(N)=O)C(C)C)C(C)C [SEQ. ID. NO: 23]	#
0.47 ± 0.14	1.24	0.24 ± 0.01	CC[C@H](C)[C@H](NC(=O)[C@H](CCC(=O)O)NC(=O)[C@H](CO)NC(=O)[C@@H](NC(=O)[C@@H](N)CO)C(C)C)C(=O)N[C@@H](CCC(N)=O)C(=O)NC[C@H](CC(C)C)C(=O)N[C@@H](CCSC)C(=O)N[C@@H](Cc1c[nH]cn1)C(=O)N[C@@H](CC(N)=O)C(=O)N[C@@H](CC(C)C)C(=O)NCC(=O)N[C@@H](CCCCN)C(=O)N[C@@H](Cc1c[nH]cn1)C(=O)N[C@@H](CC(C)C)C(=O)N[C@@H](CC(N)=O)C(=O)N[C@@H](CO)C(=O)N[C@@H](CCSC)C(=O)N[C@@H](CCC(=O)O)C(=O)N[C@@H](CCCNC(=N)N)C(=O)N[C@H](C(=O)N[C@@H](CCC(=O)O)C(=O)N[C@@H](Cc1c[nH]c2ccccc12)C(=O)N[C@@H](CC(C)C)C(=O)N[C@@H](CCCNC(=N)N)C(=O)N[C@@H](CCCCN)C(=O)N[C@@H](CCCCN)C(=O)N[C@@H](CC(C)C)C(=O)N[C@@H](CCC(N)=O)C(=O)N[C@@H](CC(=O)O)C(=O)N[C@H](C(=O)N[C@@H](Cc1c[nH]cn1)C(=O)N[C@@H](CC(N)=O)C(=O)N[C@@H](Cc1ccccc1)C(N)=O)C(C)C)C(C)C [SEQ. ID. NO: 36]	*#
0.42 ± 0.07	1.11	1.96 ± 0.45	CC[C@H](C)[C@H](NC(=O)[C@H](CCC(=O)O)NC(=O)[C@H](CO)NC(=O)[C@@H](NC(=O)[C@@H](N)CO)C(C)C)C(=O)NC[C@H](CCC(N)=O)C(=O)N[C@@H](CC(C)C)C(=O)N[C@@H](CCSC)C(=O)N[C@@H](Cc1c[nH]cn1)C(=O)N[C@@H](CC(N)=O)C(=O)N[C@@H](CC(C)C)C(=O)NCC(=O)N[C@@H](CCCCN)C(=O)N[C@@H](Cc1c[nH]cn1)C(=O)N[C@@H](CC(C)C)C(=O)N[C@@H](CC(N)=O)C(=O)N[C@@H](CO)C(=O)N[C@@H](CCSC)C(=O)N[C@@H](CCC(=O)O)C(=O)N[C@@H](CCCNC(=N)N)C(=O)N[C@H](C(=O)N[C@@H](CCC(=O)O)C(=O)N[C@@H](Cc1c[nH]c2ccccc12)C(=O)N[C@@H](CC(C)C)C(=O)N[C@@H](CCCNC(=N)N)C(=O)N[C@@H](CCCCN)C(=O)N[C@@H](CCCCN)C(=O)N[C@@H](CC(C)C)C(=O)N[C@@H](CCC(N)=O)C(=O)N[C@@H](CC(=O)O)C(=O)N[C@H](C(=O)N[C@@H](Cc1c[nH]cn1)C(=O)N[C@@H](CC(N)=O)C(=O)N[C@@H](Cc1ccccc1)C(N)=O)C(C)C)C(C)C [SEQ. ID. NO: 35] (H-SVSEI[X7]LMHNLGKHLNSMERVEWLRKKLQDVHNF-NH2; N-terminus assumed)	*#
